{"source": "patent US5190753A", "about": "“3-phenyl-5,6-dihydrobenziciacridine-7-carboxylic acids and related compounds as immunosuppressive agents” (Du Pont Merck Pharmaceutical Company, priority 1992, dated 1993)", "key": {"[1]": {"settings": "clinical use; cited from earlier work"}, "[2]": {"system": "human mixed lymphocyte reaction (peripheral blood mononuclear cells, PBMC)", "test": "Human mixed lymphocyte reaction (3H-thymidine incorporation)", "format": "cell-based", "procedure": "Blood was obtained by venipuncture from two nonrelated human donors. Peripheral blood mononuclear cells (PBMC) were isolated from these samples by using the Leuco Prep procedure (Becton-Dickinson). PBMC were washed twice in phosphate buffered saline (without calcium and magnesium) and the separate cell isolations were adjusted to the appropriate concentrations in media (RPMI 1640) supplemented with 10% human AB serum and […] gentamicin. Cells from donor A (2×10^5) were incubated with cells from donor B (2×10^5) in 96 well round bottom microliter plates at 37° C., 5% CO2 for 6 days. Eighteen hours prior to harvesting cells from the plates, all wells were pulsed with 1 μCi of ^3 H-thymidine. Cells from the plates were harvested on day-6 and 3H-thymidine incorporation was determined using a scintillation counter.\nThe human mixed lymphocyte reaction model, is an in vitro model for transplantation rejection."}, "[3]": {"system": "contact sensitivity response to 2,4-dinitrofluorobenzene (DNFB) in Balb/c female mice", "test": "Contact sensitivity response to DNFB in mice (delayed-type hypersensitivity, ear swelling)", "format": "in vivo", "procedure": "Balb/c female mice (.perspectiveto. 20 g; Charles River) were sensitized on the shaved abdomen with 25 μl of 0.5% 2,4-dinitrofluorobenzene (DNFB, Eastman Kodak Co.) in a vehicle of 4:1 acetone:olive oil on days 0 and 1. Mice were ear challenged with 20 μl of 0.2% DNFB in a vehicle of 4:1 acetone:olive oil on day-5. An identical segment of the ear was measured immediately before challenge and 24 hours later with an engineer's micrometer. Ear swelling was expressed as the difference in ear thickness before and after challenge in units of 10^-4 inches ± SEM. Percent suppression was calculated as: [formula] Compounds were administered orally from day-2 through day-6 and were prepared in 0.25% Methocel® (Dow Chemical Co.). Control animals received only vehicle (0.25% Methocel®). Negative controls were not sensitized on days 0 and 1 but were ear challenged on day-5. Ten mice were used per group.\nContact sensitivity to DNFB is a form of delayed-type hypersensitivity which has been extensively studied to gain an understanding of the regulation of immunologic processes (Claman et al. (1980), Immunological Rev. 50:105-132). This reaction is mediated by T lymphocytes that become sensitized to antigen by proliferating and developing into mature effector cells (Claman et al. (1980), Immunological Rev. 50:105-132). This cell-mediated immune response (T-cell mediated immunity) is central to many disease states such as organ transplantation rejection and graft versus host disease (Benacerraf and Unanue (1979), Textbook of Immunology, Williams & Wilkins Co.; Eisen (1980), Immunology, An Introduction to Molecular and Cellular Principles of the Immune Responses, Harper & Row, Inc.; Loveland and McKenzie (1982), Immunology 46:313-320; Gallin et al. (1988), Inflammation, Basic Principles and Clinical Correlates, Raven Press). […]"}}}
{"smiles": "Cn1cnc([N+](=O)[O-])c1Sc1ncnc2nc[nH]c12", "note": "[azathioprine]", "values": [{"measurement": "Significant clinically observed toxicities", "setting": "[1]", "result": "hepatoxicity"}]}
{"smiles": "O=C([O-])c1c2c(nc3ccc(F)cc13)-c1ccc(-c3ccccc3)cc1CC2.[Na+]", "note": "[Example 12, 5,6-dihydro-9-fluoro-3-phenylbenz-[c]acridine-7-carboxylic acid, sodium salt]", "values": [{"measurement": "IC50", "setting": "[2]; Homo sapiens, Lymphocyte, 6 days incubation, 3H-thymidine pulse 18 hours prior to harvest", "result": 65, "unit": "nM"}, {"measurement": "human mixed lymphocyte reaction (in words)", "setting": "[2]; statement in words, compared with CSA", "result": "comparable to CSA"}, {"measurement": "% Suppression", "setting": "[3]; 20.0 mg/kg orally, day-2 through day-6, of ear swelling", "result": 99.75, "unit": "%"}, {"measurement": "Ear Swelling (increase in ear thickness from day 5 to day 6)", "setting": "[3]; 20.0 mg/kg orally, day-2 through day-6, units ± SEM, ten mice per group, 24 hours after challenge", "result": "2.44 ± 1.62 10^-4 inches"}, {"measurement": "immunosuppressive activity (in words)", "setting": "[3]; statement in words", "result": "have immunosuppressive activity"}]}
